# Experimental data taken from patent US9980943B2, “Methods of treating muscular dystrophy” (BOARD OF REGENTS OF THE NEVADA SYSTEM OF HIGHER EDUCATION, …, priority 2013, dated 2018).
# Columns and labels:
# Type in all cases: cell-based, mouse
# [1] = tested on: α7 integrin (LacZ reporter in α7βgal+/− myoblasts); experiment: Myoblast α7+/LacZ integrin FDG assay (Burkin assay in myoblasts, 96-well); conditions: α7+/LacZ myoblasts, 96-well
# [2] = tested on: β-galactosidase in CMV-LacZ C2C12 myoblasts; experiment: CMV-LacZ secondary screen in C2C12 myoblasts (β-Gal stabilizing assay); conditions: CMV-LacZ C2C12 myoblasts
# Procedure, shortened: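 C2C12 myoblasts stably carrying a linearized CMV-driven LacZ construct, clone chosen by β-gal level in the myoblast FDG assay. Compounds tested in 96-well dose-response at 0.5, 1, 5, 10, 20 and 40 μM, N=2 replicates per point, to detect β-gal stabilization.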
# [3] = tested on: α7 integrin (LacZ reporter in α7+/LacZ myotubes); experiment: Myotube α7 integrin FDG assay (Burkin assay in myotubes, 96-well); conditions: myotubes
# [4] = tested on: β-galactosidase in CMV-LacZ C2C12 myotubes; experiment: CMV-LacZ secondary screen in C2C12 myotubes (β-Gal stabilizing assay); conditions: C2C12 CMV-LacZ myotubes, fold relative to DMSO
# Procedure, shortened: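 Stable CMV-LacZ C2C12 clone; six-point curve 0.5–40 μM; duplicates.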
SMILES,"Burkin Assay in Myoblasts, signal relative to DMSO ([1]; 0.5 uM)","Burkin Assay in Myoblasts, signal relative to DMSO ([1]; 1 uM)","Burkin Assay in Myoblasts, signal relative to DMSO ([1]; 5 uM)","Burkin Assay in Myoblasts, signal relative to DMSO ([1]; 10 uM)","Burkin Assay in Myoblasts, signal relative to DMSO ([1]; 20 uM)","Burkin Assay in Myoblasts, signal relative to DMSO ([1]; 40 uM)",CMV-LACZ in Myoblasts (β-galactosidase activity relative to DMSO) ([2]; 0.5 uM),CMV-LACZ in Myoblasts (β-galactosidase activity relative to DMSO) ([2]; 1 uM),CMV-LACZ in Myoblasts (β-galactosidase activity relative to DMSO) ([2]; 5 uM),CMV-LACZ in Myoblasts (β-galactosidase activity relative to DMSO) ([2]; 10 uM),CMV-LACZ in Myoblasts (β-galactosidase activity relative to DMSO) ([2]; 20 uM),CMV-LACZ in Myoblasts (β-galactosidase activity relative to DMSO) ([2]; 40 uM),"Burkin Assay in Myotubes, α7 integrin LacZ reporter signal relative to DMSO ([3]; 0.5 uM)","Burkin Assay in Myotubes, α7 integrin LacZ reporter signal relative to DMSO ([3]; 1 uM)","Burkin Assay in Myotubes, α7 integrin LacZ reporter signal relative to DMSO ([3]; 5 uM)","Burkin Assay in Myotubes, α7 integrin LacZ reporter signal relative to DMSO ([3]; 10 uM)","Burkin Assay in Myotubes, α7 integrin LacZ reporter signal relative to DMSO ([3]; 20 uM)","Burkin Assay in Myotubes, α7 integrin LacZ reporter signal relative to DMSO ([3]; 40 uM)","CMV-LACZ in Myotubes, signal relative to DMSO ([4]; 0.5 uM)","CMV-LACZ in Myotubes, signal relative to DMSO ([4]; 1 uM)",other results
CC1CC(C)(C)NC(=S)N1CC(=O)N(C)Cc1ccccc1 (stereo not drawn) [MLS000586245-01],0.9903,1.049,1.116,1.244,1.033,1.021,0.9034,0.8985,0.9258,1.0505,0.7726,0.7674,1.003,0.9584,1.043,1.179,0.9426,1.026,1.0611,1.0800,"CMV-LACZ in Myotubes, signal relative to DMSO ([4]; 5 uM): 0.9511; CMV-LACZ in Myotubes, signal relative to DMSO ([4]; 10 uM): 1.1338; CMV-LACZ in Myotubes, signal relative to DMSO ([4]; 20 uM): 1.2267; CMV-LACZ in Myotubes, signal relative to DMSO ([4]; 40 uM): 1.2656"
Cc1ccc(N2C(=O)C3NN=C(C(=O)OCc4ccccc4)C3C2=O)cc1 (stereo not drawn) [MLS000588210-01],1.055,0.9707,0.9002,0.9816,1.136,0.9611,1.2908,0.9782,0.7808,0.9316,1.0307,0.9000,0.9425,0.9559,0.9466,0.9155,0.9763,0.9565,1.1263,1.0853,"CMV-LACZ in Myotubes, signal relative to DMSO ([4]; 5 uM): 0.9182; CMV-LACZ in Myotubes, signal relative to DMSO ([4]; 10 uM): 1.0815; CMV-LACZ in Myotubes, signal relative to DMSO ([4]; 20 uM): 1.1322; CMV-LACZ in Myotubes, signal relative to DMSO ([4]; 40 uM): 1.1656"
O=C(CNC(=O)c1cccc(F)c1)N/N=C/c1cc(Br)ccc1OCc1ccccc1 [MLS000591667-01],0.9901,1.034,1.132,1.088,0.8623,1.1351,0.9491,0.7850,1.1587,1.1592,0.8030,1.0593,1.005,1.1434,1.072,0.9986,0.6781,0.6965,0.8600,1.0726,"CMV-LACZ in Myotubes, signal relative to DMSO ([4]; 5 uM): 1.0824; CMV-LACZ in Myotubes, signal relative to DMSO ([4]; 10 uM): 1.0152; CMV-LACZ in Myotubes, signal relative to DMSO ([4]; 20 uM): 0.8929; CMV-LACZ in Myotubes, signal relative to DMSO ([4]; 40 uM): 0.8800"
